Data as given in patent publication US20200172489A1, “FLUORESCENT COMPOUND AND AUTOPHAGY DETECTION REAGENT USING SAME” (DOJINDO LABORATORIES, priority 2017, published 2020).
Counter-ions that a name gives are not always drawn.

Legend:
HeLa cells [1] = assay: Autophagy detection test (1): fluorescent microscopy of HeLa cells after introducing the compound, with autophagy induced or inhibited; assay type: cell-based; details: for fluorescent intensity in HeLa cells in the presence of Bafilomycin: Bafilomycin (0.1 μM bafilomycin A1), autophagy hardly occurs; for fluorescent intensity in HeLa cells in the presence of Bafilomycin / fluorescent intensity in HeLa cells, control group / fluorescent intensity in HeLa cells under starvation condition / change of fluorescent intensity in HeLa cells when bafilomycin was added under starvation condition: FIG. 7; for fluorescent intensity in HeLa cells, control group: Control (autophagy hardly occurs); for fluorescent intensity in HeLa cells under starvation condition: Starved; for change of fluorescent intensity in HeLa cells when bafilomycin was added under starvation condition: starvation plus bafilomycin
Description: HeLa cells were seeded on a μ-slide 8 well (Ibidi) and incubated in a CO2 incubator at 37° C. overnight. Compound 4b (1 μM) or Compound 6h (0.1 μM) diluted with serum medium was added and incubated for 30 minutes. After washing twice with serum medium, the cells were incubated at 37° C. for 6 hours or 20 hours in an amino acid-free medium of serum containing-medium and observed with a fluorescent microscope. As an autophagy inducing agent, 0.5 μM Rapamycin was used and as an autophagy inhibiting agent, 10 μM chloroquine and 0.1 μM bafilomycin A1 were used.

HeLa cells [2] = assay: Autophagy detection test (1): evaluation using flow cytometry; assay type: cell-based; details: 1 μM; starvation condition, 6 hours and 20 hours; FIG. 3
Description: HeLa cells were seeded on a 24 well plate and incubated in a CO2 incubator at 37° C. overnight, 1 μM of Compound 4b diluted with serum medium was added and incubated for 30 minutes. After washing twice with the serum-free medium, a medium free from amino acid and serum was added and the cells were incubated at 37° C. for 6 hours or 20 hours. Cell were washed with PBS once, peeled with 0.25% trypsin-EDTA and used for flow cytometric analysis.

HeLa cells [3] = assay: Autophagy detection test (4): staining of HeLa cells with Compound 4b and Compound 13, fluorescent microscopy; assay type: cell-based; details: Compound 4b 1 μM and Compound 13 0.1 μM; 3 hours or 6 hours; FIG. 12
Description: HeLa cells were seeded on a μ-slide 8 well (Ibidi) and incubated in a CO2 incubator at 37° C. overnight. Compound 4b (1 μM) or Compound 13 (0.1 μM) diluted with serum medium was added and incubated for 30 minutes. After washing twice with serum medium, the cells were incubated at 37° C. for 3 hours or 6 hours in an amino acid-free medium of serum containing-medium and observed with a fluorescent microscope.

HeLa cells [4] = assay: Autophagy detection test (3): co-staining of HeLa cells with Compound 6h and Compound 11, fluorescent microscopy; assay type: cell-based; details: Compound 6h 1 μM and Compound 11 0.1 μM; 3 hours or 6 hours; FIG. 11
Description: HeLa cells were seeded on a μ-slide 8 well (Ibidi) and incubated in a CO2 incubator at 37° C. overnight. Compound 6h (1 μM) and Compound 11 (0.1 μM) diluted with serum medium was added and incubated for 30 minutes. After washing twice with serum medium, the cells were incubated at 37° C. for 3 hours or 6 hours in an amino acid-free medium of serum containing-medium and observed with a fluorescent microscope.

[5] = pH dependence of fluorescent intensity of the fluorescent compounds; assay type: physicochemical; details: for pH dependence of fluorescent intensity: FIG. 6
HeLa cells [6] = assay: Autophagy detection test (2): fluorescent microscopy of HeLa cells under starvation condition; assay type: cell-based; details: 0.1 μM; Starve vs Control; incubated 5 hours; FIG. 10
Description: HeLa cells were seeded on a μ-slide 8 well (Ibidi) and incubated in a CO2 incubator at 37° C. overnight. Compound 6h diluted with a serum medium (0.1 μM) was added and incubated for 30 minutes. After washing twice with serum medium, the cells were incubated at 37° C. for 5 hours in an amino acid-free medium of serum containing-medium and observed with a fluorescent microscope.

Row | Structure (SMILES) | fluorescent intensity in HeLa cells in the presence of Bafilomycin (HeLa cells [1]) | fluorescent intensity in HeLa cells, control group (HeLa cells [1]) | fluorescent intensity in HeLa cells, autophagy induced by adding Rapamycin (HeLa cells [1]; Rapamycin & Chloroquine group vs Control, 0.5 μM Rapamycin, 10 μM chloroquine, incubated 6 hours and 20 hours, FIG. 2) | fluorescent intensity in HeLa cells, autophagy induced by starvation culture (HeLa cells [1]; Starved group vs Control, incubated 6 hours and 20 hours, FIG. 2) | fluorescent intensity in HeLa cells under starvation condition (HeLa cells [1]; autophagy induced) | change of fluorescent intensity in HeLa cells when bafilomycin was added under starvation condition (HeLa cells [1]) | usefulness for detecting autophagy by flow cytometry (HeLa cells [2]) | staining pattern in HeLa cells under starvation condition, two compounds introduced together (HeLa cells [3]) | staining pattern in HeLa cells under starvation condition, two compounds introduced together (HeLa cells [4]) | pH dependence of fluorescent intensity [5] | shape of fluorescent emission in high-magnification fluorescent microscopic images (HeLa cells [1]; HeLa cells, autophagy induced, FIG. 8, A-1 and A-2) | fluorescent intensity in HeLa cells under starvation condition (HeLa cells [6]) | pH (acidic condition) under which the fluorescent intensity increases ([5]; FIG. 1 / FIG. 9)
1 | CCCCCN1C(=O)c2cccc3c(N4CCN(CCN)CC4)ccc(c23)C1=O [Compound 4b, 2-(4-(1,3-dioxo-2-pentyl-2,3-dihydro-1H-benzo[de]isoquinolin-6-yl)piperazin-1-yl)ethane-1-amine hydrochloride salt] | low | low | enhancement of the fluorescent intensities was observed | enhancement of the fluorescent intensities was observed | high | decreased | useful for detecting autophagy using not only fluorescent microscopy but also flow cytometry | granular points stained only by Compound 4b and granular points co-stained by Compound 4b and Compound 13 |  |  |  |  | 
2 | CCCCCN1C(=O)c2cccc3c(NCCCCCN)ccc(c23)C1=O [Compound 6h, hydrochloride salt] | low | low |  |  | high | did not decrease |  |  | granular points stained only by Compound 6h and granular points co-stained by Compound 6h and Compound 11 | no pH dependence | ring-shaped fluorescent emission | enhancement of the fluorescent intensity was observed | 
3 | CCCCCN1C(=O)c2ccc3c4cccc5c(N6CCN(CCN)CC6)ccc(c6ccc(c2c36)C1=O)c54 [Compound 11, 8-(4-(2-aminoethyl)piperazin-1-yl)-2-pentyl-1H-benzo[10,5]anthra[2,1,9-def]isoquinolin-1,3(2H)-dione] |  |  |  |  |  |  |  |  | granular points co-stained by Compound 6h and Compound 11 |  |  |  | ≤ 6
4 | CCCCCN1C(=O)c2ccc3c4cccc5c(NCCCCCN)ccc(c6ccc(c2c36)C1=O)c54 [Compound 13, 5-((1,3-dioxo-2-pentyl-2,3-dihydro-1H-benzo[10,5]anthra[2,1,9-def]isoquinolin-8-yl)amino)pentane-1-amine hydrochloric salt] |  |  |  |  |  |  |  | granular points co-stained by Compound 4b and Compound 13 |  | no pH dependence |  |  | 
